Laboratory results published in patent publication US9730956B2 (priority 2014, dated 2017).

Key:
[1] = system: T. mentagrophytes; assay: NORS antifungal effect on mycelial viability; format: cell-based, Trichophyton mentagrophytes; conditions: 30 minute exposure; 0.14% sodium nitrite (pH 6) or citric acid at pH 3.7 alone
[2] = system: T. rubrum; assay: NORS antifungal effect on mycelial viability; format: cell-based, Trichophyton rubrum; conditions: 30 minute exposure; 0.14% sodium nitrite (pH 6) or citric acid at pH 3.7 alone

With O=C(O)CC(O)(CC(=O)O)C(=O)O [citric acid] the “effect of single NORS component on mycelial viability” value (“effect of single NORS component” for short) [1] was “Minimal to no effect” and the “effect of single NORS component” value [2] was “Minimal to no effect”.
O=NO [sodium nitrite] was tested, and the “effect of single NORS component” value [1] was “Minimal to no effect” and the “effect of single NORS component” value [2] was “Minimal to no effect”.
